Experimental data reported in US5206254A, “β-carbonyl-carboxyamides of 1,3-thiazolidines” (Boehringer Mannheim Italia S.p.A., priority 1988, dated 1993).
Structures can show the parent of a compound that is named as a salt.

Tests used:
[1] = test system: cough strokes; experiment: Long lasting persistence of the antitussive action; type: in vivo, guinea pig; details: 30 mg/Kg os
Text: (§1) Cough strokes are provoked by electrical stimulation of the guinea pig tracheal mucosa. according to Cavanaugh et al., (Arch. Ing. Pharmacodyn., 220, 258, 1976). Cough strokes are stimulated both before (i.e. in the absence of drug treatment) and one hour after the drug administration. […] A group of six animals is used at each dose level; this test is particularly useful for the evaluation of long lasting effects until and after three hours from the administration.
The results showing the long lasting persistance of the antitussive action is reported in Table 3 in comparison with codeine phosphate; all the substances are administered at 30 mg/Kg by oral route.

[2] = test system: airways hyperreactivity, pulmonary inflation pressure (PIP); experiment: Airway hyperreactivity (PIP increase after autacoid challenge) after tobacco smoke exposure; type: in vivo, guinea pig (male); details: for prevention/inhibition of airway hyperreactivity (words): compounds: oral 20-60, i.v. 0.25-5, s.c. 2-15 mg/Kg, 6 MPHE 10-50 mg/Kg i.m., DSCG 20-100 mg/Kg i.m., salbutamol 0.5 mg/Kg i.v.
Method: In order to show this surprising pharmacological property, the compounds of the invention were tested in a bronchial hyperreactivity animal model recently developed (see Omini C. et al., 23rd Ann. Med: S.E.P.C.R., Athens 20-24th June 1988, Abstract 15S Eur. J. Resp. Dis. in press).
The airways hyperreactivity is measured as abnormal increase of the pulmonary inflation pressure (PIP) caused by the exacerbate bronchconstrictive response that follows to an autocoid challenge after active forced tobacco smoke exposure for a 10 minutes period. The abnormal PIP increase is compared with the PIP increase observed, in the same animal, before tobacco smoke, and after autacoids challenge. Male guinea pigs (400-450 g b.w.) anaesthetized with ethylurethane and pancuronium bromide were used; the recording of PIP is performed in accordance with Konzett and Rossler methods (Naumm. Schiedeberg Arch. Exp. Path/Pharmacol. 195, 71, 1940). To evidentiate such bronchial smooth muscle hyperreactivity suitable autocoids are acetylcholine, histamine, serotonine, bradykinins.
Male guinea pigs (400-450 g) are anaesthetized with ethylurethane (i.p.) and pancuronium bromide (i.v.): the trachea is cannulated and the lungs are ventilated at constant volume by connection with "Rodent respirator" Basile apparatus mod. 7025. The pulmonary inflation pressure (PIP) is measured by connection to a side-warm of the tracheal cannula of a Bell and Howell pressure transducer (mod. P 17570) that is connected to a Beckmann (mod. R 611) dynograph. The right jugular vein is catheterized for i.v. injection of autacoids and drugs. The pharmacological experiment starts with the treatment of the animal with the autocoids (for example acetylcholine by i.v. route in the interval 2.5-10 mcg/kg) in order to induce a reversible bronchoconstruction response, measured by an increase of the pulmonary inflation pressure (PIP). This increase is recorded and it is considered to represent the basal value of the animal bronochoconstrictor response to the challenge with the autocoid.
The animal is then actively exposed for a 10 minutes time period to the tobacco smoke of alighted cigarette (directly inspired by the animal). Afterwards the animal is challenged again with the autocoid, using the dosage previously injected for evokating the basal bronchoconstrictor response. The novel challenge induces an exacerbate bronochoconstrictory response and the airway hyper-reactivity is measured as the differential increase in the PIP after tobacco smoke exposure in respect to the basal value. The challenge may be repeated in the time, (2-3 hours after smoke exposure, too) until reproducible hyper-reactive responses are obtained or at different time from tobacco exposure.
(§2) A substance may be administered by i.v., oral, subcutaneous or intramuscular route at different times before tobacco smoke exposure. A compound is considered effective when it is able to prevent almost completely the exacerbate differential increase in the PIP and normalize the BAL cell cytologic pattern at the same dose level.
Differential increases of the pulmonary inflation pressure over the basal value after autacoid challenges, ranging from 150-200% are observed after smoke exposure in the animal control group (i.e. in the absence of any pharmacological treatment).
Drug treatment may be performed using different routes: intravenous, oral, subcutaneous and/or intramuscular; the substances may be administered at different times before smoke exposure and at different dose levels.
Dose related responses have been determined for reference drugs such as 6β-methyl-prednisolone-21-hemisuccinate sodium salt (6MPHE, by i.m. route, 7 hrs. b.s.l.), sodium dichromoglycate (DSCG, by i.m. route, 2 hrs. b.s.e.) and salbutamol (by i.v. route, 20 minutes before smoke exposure); the results reported in table 4, are expressed as % protection from hyperreactive reaction. […]

[3] = Acute toxicity (LD50) in rats, oral; details: rat, in vivo, 14th day of observation, read-out: DL50
Method: The compounds of the invention are therapeutically useful substances, practically free of acute, subacute or chronic toxic effects. LD50 values, usually exceeding 1 g/kg body weight are measured in mice and in rats after oral and intraperitoneal (i.p.) administration of the compounds of the invention. Only N-diethylaminoethylamino, N'-[(R,S)-2-(2-methoxyphenoxymethyl)-1,3-thiazolidine]-malondiamide and N-β-pyridylmethylamino-N'-[(R,S)-2-(2-methoxy-phenoxy-methyl)-1,3-thiazolidine]-malondiamide show DL50 values of 0.25 and 0.85 g/Kg respectively after oral administration to rats at the 14th day of observation.

[4] = test system: cough strokes provoked by electrical stimulation of the guinea pig tracheal mucosa; experiment: Electrically stimulated cough stroke test (Cavanaugh et al.); type: in vivo; details: for Percent reduction of cough strokes: 15 mg/kg os, one hour after drug
Text: Table 2 refers to results with the compounds of formula (I) in the electrically stimulated cough stroke test, in comparison with codeine phosphate.
as §1

[5] = test system: cytologic pattern of BAL fluids; experiment: Cytology of bronchoalveolar lavage (BAL) fluids after tobacco smoke exposure; type: in vivo, guinea pig (male); details: smoke-exposed animals; 6 MPHE 50 mg/Kg, DSCG 100 mg/Kg, salbutamol 0.5 mg/Kg
Text: Cytologic studies of the bronochoalveolar lavage (BAL) fluids of the animals, exposed to tobacco smoke and untreated with drugs, show a statistically significant increase of the overall cell counts. Specifically, the number of epithelial cells and of eosinophils is increased, in respect to the cell content of unexposed animals.
At the end of the experiment and/or at a desired time after smoke exposure, the animal is disconnected, and the broncho-alveolar contents are examined by lavages, injecting in the trachea physiological […] solutions (10 ml×3 times). These BAL fluids are combined, centrifuged for 15 minutes at 150 g to give pellets that are suspended in physiological saline (1 ml). The total cell number of BAL fluid is counted in a Burcher camera.
Differential cell counts are made from centrifugated preparations stained with Diff-Quick® counting at least 300 cells for each sample and the % number of epithelial cells, eosinophils, neutrophils, lymphocytes and macrophages are determined.
as §2

[6] = test system: cough strokes, evokated by the two experimental models; experiment: In vivo experiments with naloxone in the two cough models; design: species or system guinea pig

Compound	Percentage reduction of cough strokes during treatment, 1 h [1] [%]	Percentage reduction of cough strokes during treatment, 2 h [1] [%]	Percentage reduction of cough strokes during treatment, 3 h [1] [%]	prevention/inhibition of airway hyperreactivity (words) [2]	Percent reduction of cough strokes [4] [%]	other results
COc1ccccc1OCC1SCCN1C(=O)CC(=O)NCc1cccnc1 (stereo not shown)	80	67	60			
COc1ccccc1OCC1SCCN1C(=O)CC(=O)O (racemic) [Compound 10, (R,S)-2-(2-methoxy-phenoxymethyl)-3-carboxyacetyl-1,3-thiazolidine]				effective inhibitors of the hyperreactive reaction		
CNC(=O)CC(=O)N1CCSC1COc1ccccc1OC (racemic) [Compound 11, N-methylamino-N-[(R,S)-2-(2-methoxy-phenoxymethyl)-1,3-thiazolidine]-malondiamide]	24	48	60			
CCN(CC)CCNC(=O)CC(=O)N1CCSC1COc1ccccc1OC (racemic) [Example 14, N-(diethylaminoethyl), N'-[(R,S)-2-(2-methoxy-phenoxymethyl)-1,3-thiazolidine]-malondiamide]						LD50 at 336 h [3]: 250 mg/kg
COc1ccccc1OCC1SCCN1C(=O)CC(=O)NCc1cccnc1 (racemic) [Table 5 3, N-β-pyridylmethyl, N'-[(R,S)-2-(2-methoxy-phenoxymethyl)-1,3-thiazolidine]-malondiamide]				effective inhibitors of the hyperreactive reaction		LD50 at 336 h [3]: 850 mg/kg
COc1ccc2c3c1O[C@H]1[C@@H](O)C=C[C@H]4[C@@H](C2)N(C)CC[C@@]341 [Codeine phosphate, reference compound]	77	53	46		58	
C[C@H]1C[C@@H]2[C@H]([C@@H](O)C[C@@]3(C)[C@H]2CC[C@]3(O)C(=O)COC(=O)CCC(=O)O)[C@@]2(C)C=CC(=O)C=C12 [Compound 6MPHE, 6α-methyl-prednisolone-21-hemisuccinatesodium salt]				preventing airway hyperreactivity		% protection from hyperreactive reaction ([2]; 6MPHE 10 mg/kg i.m., 7 hrs before smoke exposure): 65%; % protection from hyperreactive reaction ([2]; 6MPHE 25 mg/kg i.m., 7 hrs before smoke exposure): 85%; % protection from hyperreactive reaction ([2]; 6MPHE 50 mg/kg i.m., 7 hrs before smoke exposure): 100%; prevention/inhibition of airway hyperreactivity (words) ([2]; listed as 6α-methyl-prednisolone- 21-hemisuccinatesodium salt (6 MPHE)): effective; normalization of BAL fluid cytology [5]: able to normalize the cellular pattern in the BAL fluids
O=C(O)c1cc(=O)c2c(OCC(O)COc3cccc4oc(C(=O)O)cc(=O)c34)cccc2o1 [DSCG]				preventing airway hyperreactivity		% protection from hyperreactive reaction ([2]; DSCG 25 mg/kg i.m., 2 hrs before smoke exposure): 27%; % protection from hyperreactive reaction ([2]; DSCG 50 mg/kg i.m., 2 hrs before smoke exposure): 64%; % protection from hyperreactive reaction ([2]; DSCG 100 mg/kg i.m., 2 hrs before smoke exposure): 100%; prevention/inhibition of airway hyperreactivity (words) ([2]; listed as Dichromoglycate (DSCG)): effective; normalization of BAL fluid cytology [5]: able to normalize the cellular pattern in the BAL fluids
CC(C)(C)NCC(O)c1ccc(O)c(CO)c1 (stereo not shown) [Salbutamol]				effective		% protection from hyperreactive reaction ([2]; Salbutamol 5 mg/kg i.v., 20 minutes before smoke exposure): 90%; normalization of BAL fluid cytology [5]: fails to modify the smoke induced pathological changes of the BAL fluid cytology
C=CCN1CC[C@]23c4c5ccc(O)c4O[C@H]2C(=O)CC[C@@]3(O)[C@H]1C5 [naloxone, reference compound]						protection against cough strokes by naloxone alone ([6]; 5 mg/kg s.c., both experimental models): unable to protect guinea pig against cough strokes
(+)-[2-(2-methoxyphenoxymethyl)-3-ethoxycarbonyl]-1,3-thiazolidine [Compound 8]					63	ED50 ([4]; os, electrical stimulation (Table II)): 12 mg/kg
(R,S)-2-(2-methoxy-phenoxymethyl)-3-(3-oxo-butanoyl)-1,3-thiazolidine [Compound 6]					14	
(R,S)-2-(2-methoxy-phenoxymethyl)-3-ethoxycarbonylacetyl-1,3-thiazolidine [Compound 7]	70	60	40		18	protective effect after naloxone pretreatment ([6]; naloxone 5 mg/Kg s.c. pretreatment, substance 30 mg/Kg os): complete protection against cough strokes; prevention/inhibition of airway hyperreactivity (words) ([2]; listed as (R,S)-2-(2-methoxyphenoxymethyl)-3-ethoxycarbonylacetyl-1,3-thiazolidine): highly effective; prevention/inhibition of airway hyperreactivity (words) ([2]; listed as (R,S)-2-[2-methoxy-phenoxymethyl)-3-ethoxycarbonylacetyl-1,3-thiazolidine): effective inhibitors of the hyperreactive reaction
